Experimental data reported in patent publication US8809333B2, “Imidazole, pyrazole, and triazole derivatives useful as antibacterial agents” (Pfizer Inc., priority 2011, dated 2014).
In brackets after ≈: the same amount, converted by molar mass.

How the values were obtained:
[1] = target: T1, Pseudomonas aeruginosa LpxC enzyme (Pseudomonas aeruginosa, UniProt P47205); experiment: IC50 assay, LpxC enzyme from P. aeruginosa (BioTrove RapidFire mass spectrometry); format: biochemical; settings: P. aeruginosa LpxC enzyme 0.1 nM, 25° C., 1 hour, pH 8.0; read-out: PA: IC50
T1 construct: made in house; host or cells: E. coli
T1 sequence (P47205 1-303): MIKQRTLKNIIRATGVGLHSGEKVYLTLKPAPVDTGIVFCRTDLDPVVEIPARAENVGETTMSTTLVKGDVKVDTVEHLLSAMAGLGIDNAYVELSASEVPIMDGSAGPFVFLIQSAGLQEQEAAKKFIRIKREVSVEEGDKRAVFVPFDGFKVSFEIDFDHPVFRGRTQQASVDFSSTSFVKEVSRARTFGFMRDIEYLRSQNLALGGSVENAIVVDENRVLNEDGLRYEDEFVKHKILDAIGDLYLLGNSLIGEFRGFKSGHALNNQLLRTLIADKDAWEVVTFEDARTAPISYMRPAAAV
Summary of the method: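 P. aeruginosa LpxC reaction run 1 hour, stopped with 1 N HCl, and substrate-to-product conversion quantified by RapidFire mass spectrometry. IC50 calculated from percent conversion using a no-enzyme control.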

[2] = tested on: Escherichia coli EC-1: VOGEL, mouse virulent; experiment: MIC determination (CLSI), EC-1; format: cell-based; settings: Escherichia coli, read-out: EC-1 (MIC)
Summary of the method: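 Broth dilution MIC per CLSI M7-A8, with 2-fold compound dilutions incubated overnight with a standard inoculum. MIC is the lowest concentration visibly inhibiting growth versus drug-free control; tested in duplicate, reporting the lower value when within 2-fold, with QC organisms and reference compounds required in range.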

[3] = tested on: Pseudomonas aeruginosa UI-18: Wild-type (PA-7); experiment: MIC determination (CLSI), PA-7; format: cell-based; settings: Pseudomonas aeruginosa UI-18 wild-type; overnight incubation; lower of duplicate values; read-out: PA-7 (MIC)
Summary of the method: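 Broth dilution MIC per CLSI M7-A8, using 2-fold compound dilutions incubated overnight; MIC is the lowest concentration with no visible growth versus the drug-free control. Run in duplicate, lower value reported when within 2-fold. Control organisms and reference compounds were included for QC.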

[4] = tested on: Klebsiella pneumoniae: Ciprofloxacin-resistant isolate, expresses ESBL, clinical isolate (KP-3700); experiment: MIC determination (CLSI), KP-3700; format: cell-based; settings: overnight incubation, lower of duplicate values
Summary of the method: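 Broth dilution MIC per CLSI M7-A8 against the ciprofloxacin-resistant, ESBL-expressing clinical isolate, 2-fold concentration steps, overnight incubation, visual read of lowest growth-inhibiting concentration. Tested in duplicate; lower value reported when within 2-fold; control organisms and reference compounds required within range.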

[5] = tested on: Acinetobacter baumannii/haemolyticus: Multidrug-resistant clinical isolate (AB-3167); experiment: MIC determination (CLSI), AB-3167; format: cell-based; settings: Acinetobacter baumannii/haemolyticus multidrug-resistant clinical isolate; overnight incubation; lower of duplicate values; read-out: AB-3167 (MIC)
Summary of the method: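 Broth dilution MIC per CLSI M7-A8, 2-fold concentration steps, overnight incubation, visual read of lowest concentration inhibiting growth versus drug-free control. Tested in duplicate; lower value reported if within 2-fold, otherwise repeated; QC organisms and reference drugs required within range.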

Compound	IC50 [1] [nM]	MIC [2] [µg/mL]	MIC [3] [µg/mL]	KP-3700 (MIC) [4] [µg/mL]	MIC [5] [µg/mL]
Cc1cc(-c2cnn(CCC(C)(C(=O)NO)S(C)(=O)=O)c2)ccc1F (centres unmarked) [Example 52, 4-[4-(4-fluoro-3-methylphenyl)-1H-pyrazol-1-yl]-N-hydroxy-2-methyl-2-(methylsulfonyl)butanamide]	6.93	16 (≈ 43.3 µM)	2 (≈ 5.41 µM)	64	> 64
Cc1c(F)cccc1-c1cnn(CCC(C)(C(=O)NO)S(C)(=O)=O)c1 (centres unmarked) [Example 53, 4-[4-(3-fluoro-2-methylphenyl)-1H-pyrazol-1-yl]-N-hydroxy-2-methyl-2-(methylsulfonyl)butanamide]	9.28	32 (≈ 86.6 µM)	16 (≈ 43.3 µM)	>64.0	> 64
CC(CCn1cc(-c2ccc(Cl)cn2)cn1)(C(=O)NO)S(C)(=O)=O (centres unmarked) [Example 54, 4-[4-(5-chloropyridin-2-yl)-1H-pyrazol-1-yl]-N-hydroxy-2-methyl-2-(methylsulfonyl)butanamide]	6.94	> 64	16 (≈ 42.9 µM)	>64.0	> 64
CC(CCn1cc(-c2ccc(F)cc2F)cn1)(C(=O)NO)S(C)(=O)=O (centres unmarked) [Example 55, 4-[4-(2,4-difluorophenyl)-1H-pyrazol-1-yl]-N-hydroxy-2-methyl-2-(methylsulfonyl)butanamide]	2.07	8 (≈ 21.4 µM)	2 (≈ 5.36 µM)	64	> 64
CC(CCn1cc(-c2cc(F)ccc2F)cn1)(C(=O)NO)S(C)(=O)=O (centres unmarked) [Example 56, 4-[4-(2,5-difluorophenyl)-1H-pyrazol-1-yl]-N-hydroxy-2-methyl-2-(methylsulfonyl)butanamide]	6.75	32 (≈ 85.7 µM)	8 (≈ 21.4 µM)	>64.0	> 64
CC(CCn1cc(-c2ccc3cc[nH]c3n2)cn1)(C(=O)NO)S(C)(=O)=O (centres unmarked) [Example 57, N-hydroxy-2-methyl-2-(methylsulfonyl)-4-[4-(1H-pyrrolo[2,3-b]pyridin-6-yl)-1H-pyrazol-1-yl]butanamide]	3.72	> 64	64 (≈ 170 µM)	>64.0	> 64
CC(CCn1cc(-c2ccc3c(c2)CCO3)cn1)(C(=O)NO)S(C)(=O)=O (centres unmarked) [Example 58, 4-[4-(2,3-dihydro-1-benzofuran-5-yl)-1H-pyrazol-1-yl]-N-hydroxy-2-methyl-2-(methylsulfonyl)butanamide]	1.17	> 64	4 (≈ 10.5 µM)	>64.0	> 64
CC(CCn1cc(-c2ccc(F)c(C#N)c2)cn1)(C(=O)NO)S(C)(=O)=O (centres unmarked) [Example 59, 4-[4-(3-cyano-4-fluorophenyl)-1H-pyrazol-1-yl]-N-hydroxy-2-methyl-2-(methylsulfonyl)butanamide]	11.6	> 64	64 (≈ 168 µM)	>64.0	> 64
COc1ccc(-c2cnn(CCC(C)(C(=O)NO)S(C)(=O)=O)c2)cc1F (centres unmarked) [Example 60, 4-[4-(3-fluoro-4-methoxyphenyl)-1H-pyrazol-1-yl]-N-hydroxy-2-methyl-2-(methylsulfonyl)butanamide]	20.1	64 (≈ 166 µM)	8 (≈ 20.8 µM)	>64.0	> 64
CC(CCn1cc(-c2ccc3c(c2)C(=O)CC3)cn1)(C(=O)NO)S(C)(=O)=O (centres unmarked) [Example 61, N-hydroxy-2-methyl-2-(methylsulfonyl)-4-[4-(3-oxo-2,3-dihydro-1H-inden-5-yl)-1H-pyrazol-1-yl]butanamide]	38.6	> 64	> 64	>64.0	> 64
CC(CCn1cc(-c2ccc3c(c2)CCC3=O)cn1)(C(=O)NO)S(C)(=O)=O (centres unmarked) [Example 62, N-hydroxy-2-methyl-2-(methylsulfonyl)-4-[4-(1-oxo-2,3-dihydro-1H-inden-5-yl)-1H-pyrazol-1-yl]butanamide]	0.754	> 64	16 (≈ 40.9 µM)	>64.0	> 64
CC(CCn1cc(-c2ccc3c(c2)OCCO3)cn1)(C(=O)NO)S(C)(=O)=O (centres unmarked) [Example 63, 4-[4-(2,3-dihydro-1,4-benzodioxin-6-yl)-1H-pyrazol-1-yl]-N-hydroxy-2-methyl-2-(methylsulfonyl)butanamide]	6.75	> 64	4 (≈ 10.1 µM)	>64.0	> 64
CC(CCn1cc(-c2ccc(C#N)c(Cl)c2)cn1)(C(=O)NO)S(C)(=O)=O (centres unmarked) [Example 64, 4-[4-(3-chloro-4-cyanophenyl)-1H-pyrazol-1-yl]-N-hydroxy-2-methyl-2-(methylsulfonyl)butanamide]	0.62	64 (≈ 161 µM)	4 (≈ 10.1 µM)	>64.0	> 64
COc1ccc(-c2cnn(CCC(C)(C(=O)NO)S(C)(=O)=O)c2)cc1OC (centres unmarked) [Example 65, 4-[4-(3,4-dimethoxyphenyl)-1H-pyrazol-1-yl]-N-hydroxy-2-methyl-2-(methylsulfonyl)butanamide]	93.2	> 64	> 64	>64.0	> 64
CC(CCn1cc(-c2ccc(C3(C#N)CC3)cc2)cn1)(C(=O)NO)S(C)(=O)=O (centres unmarked) [Example 66, 4-{4-[4-(1-cyanocyclopropyl)phenyl]-1H-pyrazol-1-yl}-N-hydroxy-2-methyl-2-(methylsulfonyl)butanamide]	2.83	> 64	16 (≈ 39.8 µM)	>64.0	> 64
Cc1ccc2cc(-c3cnn(CCC(C)(C(=O)NO)S(C)(=O)=O)c3)ccc2n1 (centres unmarked) [Example 67, N-hydroxy-2-methyl-4-[4-(2-methylquinolin-6-yl)-1H-pyrazol-1-yl]-2-(methylsulfonyl)butanamide]	12.1	> 64	32 (≈ 79.5 µM)	>64.0	> 64
CC(CCn1cc(-c2cccc(OC(F)F)c2)cn1)(C(=O)NO)S(C)(=O)=O (centres unmarked) [Example 68, 4-{4-[3-(difluoromethoxy)phenyl]-1H-pyrazol-1-yl}-N-hydroxy-2-methyl-2-(methylsulfonyl)butanamide]	2.1	64 (≈ 159 µM)	8 (≈ 19.8 µM)	>64.0	> 64
CC(CCn1cc(-c2ccc3cnc(N)cc3c2)cn1)(C(=O)NO)S(C)(=O)=O (centres unmarked) [Example 69, 4-[4-(3-aminoisoquinolin-6-yl)-1H-pyrazol-1-yl]-N-hydroxy-2-methyl-2-(methylsulfonyl)butanamide]	2.57	> 64	> 64	>64.0	> 64
CC(CCn1cc(-c2ccc(-c3cc[nH]n3)cc2)cn1)(C(=O)NO)S(C)(=O)=O (centres unmarked) [Example 70, N-hydroxy-2-methyl-2-(methylsulfonyl)-4-{4-[4-(1H-pyrazol-3-yl)phenyl]-1H-pyrazol-1-yl}butanamide]	4.11	64 (≈ 159 µM)	32 (≈ 79.3 µM)	>64.0	> 64
CC(CCn1cc(-c2cccc(-c3cc[nH]n3)c2)cn1)(C(=O)NO)S(C)(=O)=O (centres unmarked) [Example 71, N-hydroxy-2-methyl-2-(methylsulfonyl)-4-{4-[3-(1H-pyrazol-3-yl)phenyl]-1H-pyrazol-1-yl}butanamide]	5.12	> 64	> 64	>64.0	> 64
CC(CCn1cc(-c2ccc(-c3cnco3)cc2)cn1)(C(=O)NO)S(C)(=O)=O (centres unmarked) [Example 72, N-hydroxy-2-methyl-2-(methylsulfonyl)-4-{4-[4-(1,3-oxazol-5-yl)phenyl]-1H-pyrazol-1-yl}butanamide]	0.373	4 (≈ 9.89 µM)	2 (≈ 4.95 µM)	16	> 64
CC(CCn1cc(-c2ccc(-c3ccno3)cc2)cn1)(C(=O)NO)S(C)(=O)=O (centres unmarked) [Example 73, N-hydroxy-2-methyl-2-(methylsulfonyl)-4-{4-[4-(1,2-oxazol-5-yl)phenyl]-1H-pyrazol-1-yl}butanamide]	0.35	4 (≈ 9.89 µM)	2 (≈ 4.95 µM)	16	> 64
